The values that follow are results of earlier work, collected in patent publication US8951557B2, “Sustained release solid formulations and methods of manufacturing the same” (Hana Pharm. Co. Ltd., priority 2008, dated 2015).

SMILES strings stand for the structures.

The conditions of series [1]: 5 mg rapid release tablet administered.
The conditions of series [2]: administered orally, compared to direct administration into bloodstream.

In the case of `COc1ccc2c3c1O[C@H]1C(=O)CC[C@@]4(O)[C@@H](C2)N(C)CC[C@]314.Cl` [Oxycodone hydrochloride], the “time the analgesic effect sustains” value in series [1] is 4 to 6 h. The bioavailability in series [2] is recorded as 60-87%.
